This assay addresses T1, CFTR (F508del/MF-HBE cells) (Homo sapiens, UniProt P13569, DEL508-508).
T1 construct: human bronchial epithelial (HBE) cells derived from CF subjects heterozygous for F508del and a minimal function CFTR mutation (F508del/MF-HBE); endogenous in cells; host or cells: primary human bronchial epithelial (HBE) cells from CF subjects, genotype F508del/minimal function
Kind of assay: Ussing chamber assay of CFTR-mediated short-circuit currents (potentiator identification). Type of assay: cell-based. The conditions noted are these: CFTR-mediated Isc, 18-24 h incubation at 37° C. with 10 μM (14S)-8-[3-(2-{dispiro[2.0.2.1]heptan-7-yl}ethoxy)-1H-pyrazol-1-yl]-... corrector, 20% human serum. The method, then: Ussing Chamber Assay of CFTR-Mediated Short-Circuit Currents
Ussing chamber experiments were performed using human bronchial epithelial (HBE) cells derived from CF subjects heterozygous for F508del and a minimal function CFTR mutation (F508del/MF-HBE) and cultured as previously described (Neuberger T, Burton B, Clark H, Van Goor F Methods Mol Biol 2011:741:39-54). After four days the apical media was removed, and the cells were grown at an air liquid interface for >14 days prior to use.
To isolate the CFTR-mediated short-circuit (Isc) current, F508del/MF-HBE grown on Costar® Snapwell™ cell culture inserts were mounted in an Ussing chamber and the transepithelial ISC was measured under voltage-clamp recording conditions (Vhold=0 mV) at 37° C. The basolateral solution contained (in mM) 145 NaCl, 0.83 K2HPO4, 3.3 KH2PO4, 1.2 MgCl2, 1.2 CaCl2, 10 Glucose, 10 HEPES (pH adjusted to 7.4 with NaOH) and the apical solution contained (in mM) 145 NaGluconate, 1.2 MgCl2, 1.2 CaCl2, 10 glucose, 10 HEPES (pH adjusted to 7.4 with NaOH) and 30 μM amiloride to block the epithelial sodium channel. Forskolin (20 μM) was added to the apical surface to activate CFTR, followed by apical addition of a CFTR inhibitor cocktail consisting of BPO, GlyH-101 and CFTR inhibitor 172 (each at 20 μM final assay concentration) to specifically isolate CFTR currents. The CFTR-mediated Isc (μA/cm^2) for each condition was determined from the peak forskolin response to the steady-state current following inhibition.
Identification of Potentiator Compounds
The activity of the CFTR potentiator compounds on the CFTR-mediated Isc was determined in Ussing chamber studies as described above. The F508del/MF-HBE cell cultures were incubated with the potentiator compounds at a range of concentrations in combination with 10 μM (14S)-8-[3-(2-{dispiro[2.0.2.1]heptan-7-yl}ethoxy)-1H-pyrazol-1-yl]-12,12-dimethyl-2λ^6-thia-3,9,11,18,23-pentaazatetracyclo[17.3.1.111,14.05,10]tetracosa-1(22),5,7,9,19(23),20-hexaene-2,2,4-trione for 18-24 hours at 37° C. and in the presence of 20% human serum. The concentration of potentiator compounds and (14S)-8-[3-(2-{dispiro[2.0.2.1]heptan-7-yl}ethoxy)-1H-pyrazol-1-yl]-12,12-dimethyl-2λ^6-thia-3,9,11,18,23-pentaazatetracyclo[17.3.1.111,14.05,10]tetracosa-1(22),5,7,9,19(23),20-hexaene-2,2,4-trione used during the 18-24 hours incubations was kept constant throughout the Ussing chamber measurement of the CFTR-mediated Isc to ensure compounds were present throughout the entire experiment. The efficacy and potency of the putative F508del potentiators was compared to that of the known Vertex potentiator, ivacaftor (N-[2,4-bis(1,1-dimethylethyl)-5-hydroxyphenyl]-1,4-dihydro-4-oxoquinoline-3-carboxamide).

T1 sequence (P13569 with tags, fused parts or gaps DEL508-508): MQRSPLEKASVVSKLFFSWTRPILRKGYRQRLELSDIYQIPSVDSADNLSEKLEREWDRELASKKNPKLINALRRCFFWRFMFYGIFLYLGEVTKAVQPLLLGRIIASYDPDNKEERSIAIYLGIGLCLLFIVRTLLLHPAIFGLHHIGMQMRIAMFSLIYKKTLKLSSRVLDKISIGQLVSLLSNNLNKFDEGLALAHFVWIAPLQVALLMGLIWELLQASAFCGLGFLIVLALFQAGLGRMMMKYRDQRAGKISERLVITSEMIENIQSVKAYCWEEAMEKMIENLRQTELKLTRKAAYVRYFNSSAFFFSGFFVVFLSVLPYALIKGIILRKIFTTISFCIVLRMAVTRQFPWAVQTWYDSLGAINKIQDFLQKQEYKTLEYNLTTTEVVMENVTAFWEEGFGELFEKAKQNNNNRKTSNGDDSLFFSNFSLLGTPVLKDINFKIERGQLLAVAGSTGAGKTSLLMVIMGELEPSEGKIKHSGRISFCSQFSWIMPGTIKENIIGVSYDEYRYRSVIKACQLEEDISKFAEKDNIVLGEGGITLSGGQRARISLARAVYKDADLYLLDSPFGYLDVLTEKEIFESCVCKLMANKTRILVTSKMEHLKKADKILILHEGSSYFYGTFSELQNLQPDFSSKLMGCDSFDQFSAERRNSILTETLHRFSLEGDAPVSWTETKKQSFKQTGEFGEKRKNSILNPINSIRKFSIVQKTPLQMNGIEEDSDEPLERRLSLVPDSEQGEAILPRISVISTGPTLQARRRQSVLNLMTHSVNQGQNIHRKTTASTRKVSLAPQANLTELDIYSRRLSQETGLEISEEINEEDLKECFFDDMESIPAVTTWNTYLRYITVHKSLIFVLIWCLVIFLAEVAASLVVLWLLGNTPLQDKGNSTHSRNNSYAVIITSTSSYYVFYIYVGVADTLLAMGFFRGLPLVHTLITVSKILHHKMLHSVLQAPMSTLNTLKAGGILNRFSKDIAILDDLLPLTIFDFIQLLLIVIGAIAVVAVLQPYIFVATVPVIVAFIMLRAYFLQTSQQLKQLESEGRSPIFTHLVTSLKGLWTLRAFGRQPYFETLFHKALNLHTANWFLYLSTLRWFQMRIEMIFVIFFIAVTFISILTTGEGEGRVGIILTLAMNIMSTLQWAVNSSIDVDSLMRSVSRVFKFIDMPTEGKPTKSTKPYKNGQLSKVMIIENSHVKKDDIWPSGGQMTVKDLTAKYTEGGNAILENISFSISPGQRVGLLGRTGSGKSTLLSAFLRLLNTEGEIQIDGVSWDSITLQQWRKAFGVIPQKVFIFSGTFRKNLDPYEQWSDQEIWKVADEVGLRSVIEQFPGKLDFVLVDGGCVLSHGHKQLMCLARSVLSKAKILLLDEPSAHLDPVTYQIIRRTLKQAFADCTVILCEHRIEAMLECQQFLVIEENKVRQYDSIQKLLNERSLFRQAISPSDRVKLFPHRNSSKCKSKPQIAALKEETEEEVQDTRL

What is called EC50 is the concentration at which the effect is half-maximal. `Nc1cc(C(F)(F)F)c2nc1-c1nnc(o1)[C@@](O)(C(F)(F)F)CCCCCCS2` [Compound 21, (6R)-17-Amino-6,15-bis(trifluoromethyl)-19-oxa-13-thia-3,4,18-triazatricyclo[12.3.1.12,5]nonadeca-1(18),2,4,14,16-pentaen-6-ol]: the EC50 was below 500 nM.

Take `Nc1cc(C(F)(F)F)c2nc1-c1nnc(o1)[C@@](O)(C(F)(F)F)CCCCC[S+]2[O-]` (single isomer, unassigned) [Compound 23]: the EC50 was above 1000 nM.

With `[2H]C([2H])([2H])[C@@]1([2H])Oc2nc(c(N)cc2C(F)(F)F)C2=NN=C(O2)[C@@](O)(C(F)(F)F)CCCCC1([2H])[2H]` [Compound 39, (6R,12R)-17-amino-11,11,12-trideuterio-12-(trideuteriomethyl)-6,15-bis(trifluoromethyl)-13,19-dioxa-3,4,18-triazatricyclo[12.3.1.12,5]nonadeca-1(18),2,4,14,16-pentaen-6-ol], the EC50 is below 500 nM.

In the case of `C[C@@H]1CCCC(O)C[C@](O)(C(F)(F)F)C2=NN=C(O2)c2nc(c(C(F)(F)F)cc2N)O1` (single isomer, unassigned) [Compound 53], the concentration giving a half-maximal response (EC50) is below 500 nM.

With `CC(C)(C)c1cccc(CC2CCCCC[C@](O)(C(F)(F)F)C3=NN=C(O3)c3nc(c(C(F)(F)F)cc3N)O2)c1` (single isomer, unassigned) [Compound 52], the EC50 is below 500 nM.

For `Nc1cc(C(F)(F)F)c2nc1-c1nnc(o1)[C@@](O)(C(F)(F)F)CCCCC[S+]2[O-]` (single isomer, unassigned) [Compound 24], the EC50 was above 1000 nM.

For the compound `C[C@@H]1CC(=O)CCC[C@](O)(C(F)(F)F)C2=NN=C(O2)c2nc(c(C(F)(F)F)cc2N)O1` [Compound 25, (6R,12R)-17-amino-6-hydroxy-12-methyl-6,15-bis(trifluoromethyl)-13,19-dioxa-3,4,18-triazatricyclo[12.3.1.12,5]nonadeca-1(18),2,4,14,16-pentaen-10-one], the EC50 was above 1000 nM.

`Nc1cc(C(F)(F)F)c2nc1-c1nnc(o1)[C@@](O)(C(F)(F)F)CCCCCC[S@@+]2[O-]` [Compound 20, (6R,13R)-17-amino-13-oxido-6,15-bis(trifluoromethyl)-19-oxa-13-thionia-3,4,18-triazatricyclo[12.3.1.12,5]nonadeca-1(18),2,4,14,16-pentaen-6-ol]: the concentration giving a half-maximal response (EC50) fell in the range of 500 to 1000 nM.

Turning to `Nc1cc(C(F)(F)F)c2nc1-c1nnc(o1)[C@@](O)(C(F)(F)F)CCCCCC[S@+]2[O-]` [Compound 19, (6R,13S)-17-Amino-13-oxido-6,15-bis(trifluoromethyl)-19-oxa-13-thionia-3,4,18-triazatricyclo[12.3.1.12,5]nonadeca-1(18),2,4,14,16-pentaen-6-ol], the EC50 is below 500 nM.

In the case of `C[C@@H]1CCC(=O)CC[C@](O)(C(F)(F)F)C2=NN=C(O2)c2nc(c(C(F)(F)F)cc2N)O1` [Compound 26, (6R,12R)-17-amino-6-hydroxy-12-methyl-6,15-bis(trifluoromethyl)-13,19-dioxa-3,4,18-triazatricyclo[12.3.1.12,5]nonadeca-1(18),2,4,14,16-pentaen-9-one], the EC50 is below 500 nM.

Take `C[C@@H]1CCCCC[C@@](O)(C(F)(F)F)C2=NN=C(O2)c2nc(c(C(F)(F)F)cc2N)O1` [Compound 12, (6S,12R)-17-Amino-12-methyl-6,15-bis(trifluoromethyl)-13,19-dioxa-3,4,18-triazatricyclo[12.3.1.12,5]nonadeca-1(18),2,4,14,16-pentaen-6-ol]: the EC50 is below 500 nM.

Turning to `CC1CCC(O)(C(F)(F)F)C2=NN=C(O2)c2nc(c(C(F)(F)F)cc2N)Oc2cc(F)cc1c2` (single isomer, unassigned) [Compound 33, 19-amino-12-fluoro-9-methyl-6,17-bis(trifluoromethyl)-15,22-dioxa-3,4,20-triazatetracyclo[14.3.1.12,5.110,14]docosa-1(20),2,4,10(21),11,13,16,18-octaen-6-ol], the EC50 was below 500 nM.

For `Nc1cc(C(F)(F)F)c2nc1-c1nnc(o1)[C@@](O)(C(F)(F)F)CCCCC[C@H](CO)O2` [Compound 36, (6R,12R)-17-amino-12-(hydroxymethyl)-6,15-bis(trifluoromethyl)-13,19-dioxa-3,4,18-triazatricyclo[12.3.1.12,5]nonadeca-1(18),2,4,14,16-pentaen-6-ol], the EC50 is below 500 nM.

With `CC1CCC(O)(C(F)(F)F)C2=NN=C(O2)c2nc(c(C(F)(F)F)cc2N)Oc2cccc1c2` (centres unmarked) [Compound 29, 19-amino-9-methyl-6,17-bis(trifluoromethyl)-15,22-dioxa-3,4,20-triazatetracyclo[14.3.1.12,5.110,14]docosa-1(20),2,4,10(21),11,13,16,18-octaen-6-ol], the EC50 is below 500 nM.

`CC1CCC(O)(C(F)(F)F)C2=NN=C(O2)c2nc(c(C(F)(F)F)cc2N)Oc2cccc1c2` (single isomer, unassigned) [Compound 30, 19-amino-9-methyl-6,17-bis(trifluoromethyl)-15,22-dioxa-3,4,20-triazatetracyclo[14.3.1.12,5.110,14]docosa-1(20),2,4,10(21),11,13,16,18-octaen-6-ol]: the EC50 is below 500 nM.

On to `C[C@H]1Oc2nc(c(N)cc2C(F)(F)F)C2=NN=C(O2)[C@@](O)(C(F)(F)F)CCCCC1O` (single isomer, unassigned) [Compound 41], for which the EC50 is below 500 nM.

Take `CC1CCCCCC(O)(C(F)(F)F)C2=NN=C(O2)c2nc(c(C(F)(F)F)cc2N)O1` (centres unmarked) [Compound 8, 17-amino-12-methyl-6,15-bis(trifluoromethyl)-13,19-dioxa-3,4,18-triazatricyclo[12.3.1.12,5]nonadeca-1(18),2,4,14,16-pentaen-6-ol]: the EC50 was below 500 nM.

Take `CC1CCCCCC(O)(C(F)(F)F)C2=NN=C(O2)c2nc(c(C(F)(F)F)cc2N)O1` (centres unmarked) [Compound 7, 17-amino-12-methyl-6,15-bis(trifluoromethyl)-13,19-dioxa-3,4,18-triazatricyclo[12.3.1.12,5]nonadeca-1(18),2,4,14,16-pentaen-6-ol]: the EC50 was below 500 nM.

As to `[2H]C1CC[C@@H](C)Oc2nc(c(N)cc2C(F)(F)F)C2=NN=C(O2)[C@@](O)(C(F)(F)F)CC1[2H]` (stereo partly drawn) [Compound 44, (6R,12R)-17-amino-8,9-dideuterio-12-methyl-6,15-bis(trifluoromethyl)-13,19-dioxa-3,4,18-triazatricyclo[12.3.1.12,5]nonadeca-1(17),2,4,14(18),15-pentaen-6-ol], the EC50 was below 500 nM.

Consider `C[C@@H]1CCCCC(O)C(O)(C(F)(F)F)C2=NN=C(O2)c2nc(c(C(F)(F)F)cc2N)O1` (single isomer, unassigned) [Compound 57], for which the 50% effective concentration (EC50) is below 500 nM.

`C[C@@H]1CCCc2ccc(F)c(c2)C(O)(C(F)(F)F)C2=NN=C(O2)c2nc(c(C(F)(F)F)cc2N)O1` (stereo partly drawn) [Compound 18, (15R)-20-amino-8-fluoro-15-methyl-6,18-bis(trifluoromethyl)-16,23-dioxa-3,4,21-triazatetracyclo[15.3.1.12,5.17,11]tricosa-1(21),2,4,7(22),8,10,17,19-octaen-6-ol]: the EC50 was below 500 nM.

Take `C[C@@H]1CCCCC(O)C(O)(C(F)(F)F)C2=NN=C(O2)c2nc(c(C(F)(F)F)cc2N)O1` (single isomer, unassigned) [Compound 62]: the EC50 is below 500 nM.

For `C[C@H]1Oc2nc(c(N)cc2C(F)(F)F)C2=NN=C(O2)[C@@](O)(C(F)(F)F)CCCCC1O` (single isomer, unassigned) [Compound 40], the EC50 is below 500 nM.

The record behind these values is patent US12269831B2, “Modulators of cystic fibrosis transmembrane conductance regulator” (Vertex Pharmaceuticals Incorporated, priority 2020, dated 2025).
